Test results as given in patent publication US4486415A, “Cyclic hexapeptide somatostatin analogs” (Merck & Co., Inc., priority 1983, dated 1984).
Square brackets hold non-standard residues; d marks the D form. Peptide text beside a SMILES is read from it. NMeF = CN[C@@H](Cc1ccccc1)C(=O)O; NMeK = CN[C@@H](CCCCN)C(=O)O; dNMeK = CN[C@H](CCCCN)C(=O)O

Key:
growth hormone = assay: in vitro test for the inhibition of growth hormone release, cultured rat pituitary cells; type: cell-based; conditions: multiples or fractions of the effect of somatostatin (=1), fiducial limits in parentheses, 4 hours incubation
Procedure: The instant cyclic hexapeptide analogs of somatostatin are tested and compared with the effects of somatostatin in an in vitro test for the inhibition of growth hormone. The test is described as follows:
"Rat pituitaries were isolated according to the procedures of Vale and Grant "In vitro Pituitary Hormone Secretion Assay for Hypophysiotropic Substances" in Methods in Enzymology, Vol. XXXVII, eds. O'Malley, B.W. and Hardman, J.G. (Academic Press, Inc., New York) pp. 5-93 (1975).
After 4 days in culture, the cells were washed and incubated for 4 hours in Dulbecco-modified Eagle's medium in the presence or absence of graded doses of each analog or somatostatin. The medium was then collected for subsequent growth hormone determinatin by a double antibody radioimmunoassay for rat growth hormone."

portal vein glucagon = assay: decrease of portal vein glucagon in anesthetized rats; type: in vivo, rat; conditions: multiples or fractions of the effect of somatostatin (=1), fiducial limits in parentheses, external jugular vein, portal blood after 5 minutes
Procedure: (§1) Analogs of somatostatin were compared to somatostatin in their ability to decrease the levels of portal vein glucagon and insulin in anesthetized rates. Male Sprague-Dawley rats (Charles River CD) weighing 160-200 g were anesthetized with urethane (150 mg/100 g of body weight; Aldrich). Saline or peptides were administered via the external jugular vein. After 5 minutes, the portal vein was exposed, and blood was collected via syringe containing 3 mg of EDTA and placed in chilled tubes containing 100 μl of Trasylol (FBA Pharmaceuticals) for subsequent hormone analysis. Plasma levels of glucagon were determined by the method of Faloona and Unger, Methods of Hormone Radioimmunoassay, Jaffe and Behrman (Eds), Academic Press, New York, Vol. II, pp. 257-527 (1976), utilizing glucagon antisera 30K obtained from R. Unger (Dallas, TX). Plasma levels of insulin were determined by a modification of the procedure of Herbert et al., J. Clin. Endocrinol. Metab., 25, 1375-1384 (1965).

[1] = test system: pentagastrin evoked gastric secretion; assay: inhibition of pentagastrin evoked gastric secretion in the chronic fistula dog; type: in vivo; conditions: Dose 0.8 μg/ml./min., infusion 0-60 min., relative to placebo trial; for Gastric Secretion & Inhibition, Acid Concentration 0-30 / Gastric Secretion & Inhibition, Vol. 0-30: 0-30 min; for Gastric Secretion & Inhibition, Acid Concentration 30-60 / Gastric Secretion & Inhibition, Vol. 30-60: 30-60 min; for Gastric Secretion & Inhibition, Acid Concentration 60-90 / Gastric Secretion & Inhibition, Vol. 60-90: 60-90 min; for Gastric Secretion & Inhibition, Acid Concentration 90-120 / Gastric Secretion & Inhibition, Vol. 90-120: 90-120 min
Procedure: The effects of the instant cyclichexapeptide analogs of somatostatin are determined by the following procedure.
Compounds were tested for their ability to inhibit pentagastrin evoked gastric secretion in the chronic fistula dog. Female beagle dogs with a chronic gastric fistula were given pentagastrin (2.5 μg./kg./hour, i.v. from -60 to 120 min.) and gastric outputs were collected via the fistula cannula. Samples were analyzed at 30 minute intervals for volume (Ml.) and titratable acid (mEq/L) (Titration to pH 7 with 0.01N NaOH); total acid output (mEq) was calculated as the production of output volume and acid concentration. Test compounds were infused at a constant rate from 0 to 60 minutes. Data have been expressed as percent change of total acid output relative to a placebo trial in the same animals.

portal vein insulin = assay: decrease of portal vein insulin in anesthetized rats; type: in vivo, rat; conditions: multiples or fractions of the effect of somatostatin (=1), fiducial limits in parentheses, external jugular vein, portal blood after 5 minutes
Procedure: as §1

Compound	Growth Hormone Release Inhibition (growth hormone)	Glucagon Inhibition (portal vein glucagon)	Gastric Secretion & Inhibition, Acid Concentration 0-30 [1]	Gastric Secretion & Inhibition, Vol. 0-30 [1]	Gastric Secretion & Inhibition, Acid Concentration 30-60 [1]	Gastric Secretion & Inhibition, Vol. 30-60 [1]	Gastric Secretion & Inhibition, Acid Concentration 60-90 [1]	Gastric Secretion & Inhibition, Vol. 60-90 [1]	Gastric Secretion & Inhibition, Acid Concentration 90-120 [1]	Gastric Secretion & Inhibition, Vol. 90-120 [1]	Insulin Inhibition (portal vein insulin)
C[C@@H](O)[C@@H]1NC(=O)[C@@H](CCCCN)N(C)C(=O)[C@@H](Cc2c[nH]c3ccccc23)NC(=O)[C@H](Cc2ccccc2)NC(=O)[C@@H]2CCCN2C(=O)[C@H](Cc2ccccc2)NC1=O [Cyclo-(Pro-Phe-D-Trp-N-Me-D-Lys-Thr-Phe)] (cyclo(FPF[dW][dNMeK]T))	1.5(1.2,1.9)	0.4	44%	82%	51%	89%	6%	49%	0%	60%	0.4(0.01,1.9)
C[C@@H](O)[C@@H]1NC(=O)[C@H](CCCCN)N(C)C(=O)[C@H](Cc2c[nH]c3ccccc23)NC(=O)[C@H](Cc2ccccc2)NC(=O)[C@@H]2CCCN2C(=O)[C@H](Cc2ccccc2)NC1=O [Cyclo-(Pro-Phe-L-Trp-N-Me-Lys-Thr-Phe)] (cyclo(FPFW[NMeK]T))	0.1(0.09,0.2)	0.2									0.3(0.1,0.7)
C[C@@H](O)[C@@H]1NC(=O)[C@@H](CCCCN)N(C)C(=O)[C@H](Cc2c[nH]c3ccccc23)NC(=O)[C@H](Cc2ccccc2)NC(=O)[C@@H]2CCCN2C(=O)[C@H](Cc2ccccc2)NC1=O [Cyclo(Pro--Phe--L-Trp--D-N--Me--Lys--Thr--Phe)] (cyclo(FPFW[dNMeK]T))	0.05(0.04,0.07)										0.07
C[C@@H](O)[C@@H]1NC(=O)[C@H](CCCCN)NC(=O)[C@@H](Cc2c[nH]c3ccccc23)NC(=O)[C@H](Cc2ccccc2)NC(=O)[C@@H]2CCCN2C(=O)[C@H](Cc2ccccc2)N(C)C1=O [Cyclo(D-Trp-Lys-Thr-N-Me-Phe-Pro-Phe)] (cyclo(F[dW]KT[NMeF]P))	0.53(0.34,0.82)	2.0									1.1(0.6,1.7)
C[C@@H](O)[C@@H]1NC(=O)[C@H](CCCCN)N(C)C(=O)[C@@H](Cc2c[nH]c3ccccc23)NC(=O)[C@H](Cc2ccccc2)NC(=O)[C@@H]2CCCN2C(=O)[C@H](Cc2ccccc2)NC1=O [Cyclo(D-Trp-N-Me-Lys-Thr-Phe-Pro-Phe)] (cyclo(FPF[dW][NMeK]T))	1.6(0.7,3.4)	Active	9%	78%	49%	82%	43%	61%	32%	60%	0.5(0.1,1.8)
